In ChEMBL document CHEMBL1158616, “Biological activity of modified and exchanged 2-amino-5-nitrothiazole amide analogues of nitazoxanide” (2010):
In brackets after ≈: the same amount, converted by molar mass.

Experiments:
[1] = tested on: Helicobacter pylori; assay: Antimicrobial activity against Helicobacter pylori; assay type: functional
[2] = tested on: Clostridioides difficile; assay: Antimicrobial activity against Clostridium difficile; assay type: functional
[3] = tested on: Campylobacter jejuni; assay: Antimicrobial activity against Campylobacter jejuni; assay type: functional
[4] = tested on: Helicobacter pylori; assay: Inhibition of Helicobacter pyroli PFOR expressed in Escherichia coli at 40 uM

Structure (SMILES) | MIC [1] [µM] | MIC [2] [µM] | MIC [3] [µM] | inhibition [4] [%]
O=C(Nc1ncc([N+](=O)[O-])s1)c1cccs1 [TENONITROZOLE] | 2.9 (≈ 0.74 µg/mL) | 2.9 (≈ 0.74 µg/mL) | 1 (≈ 0.255 µg/mL) | 50
O=C(Nc1nc(Cl)c([N+](=O)[O-])s1)c1ccccc1 | 8.8 (≈ 2.5 µg/mL) | 7 (≈ 1.99 µg/mL) | > 28.2 | 59
CCCCCC(=O)Nc1nc(Cl)c([N+](=O)[O-])s1 | 0.9 (≈ 0.25 µg/mL) | 36 (≈ 10 µg/mL) | 28.8 (≈ 8 µg/mL) | 63
O=C(Nc1sc([N+](=O)[O-])cc1[N+](=O)[O-])c1cccc(C(F)(F)F)c1 | 0.5 (≈ 0.181 µg/mL) | 2.1 (≈ 0.759 µg/mL) | 4.2 (≈ 1.52 µg/mL) | 47
CCCCCC(=O)Nc1sc([N+](=O)[O-])cc1[N+](=O)[O-] | 2.6 (≈ 0.747 µg/mL) | 0.9 (≈ 0.259 µg/mL) | 27.8 (≈ 7.99 µg/mL) | 80
O=C(Nc1nc(Cl)c([N+](=O)[O-])s1)c1cccs1 | 6.9 (≈ 2 µg/mL) | 13.8 (≈ 4 µg/mL) | > 13.8 | 51
CC(=O)Oc1ccccc1C(=O)Nc1ncc([N+](=O)[O-])s1 [NITAZOXANIDE] | 13 (≈ 3.99 µg/mL) | 39.1 (≈ 12 µg/mL) | 0.8 (≈ 0.246 µg/mL) | 54
O=C(Nc1ncc([N+](=O)[O-])s1)c1cccc(C(F)(F)F)c1 | 3.5 (≈ 1.11 µg/mL) | 4.7 (≈ 1.49 µg/mL) | 0.4 (≈ 0.127 µg/mL) | 47
O=C(Nc1sc([N+](=O)[O-])cc1[N+](=O)[O-])c1ccoc1 | 2.6 (≈ 0.736 µg/mL) | 0.4 (≈ 0.113 µg/mL) | 3.5 (≈ 0.991 µg/mL) | 66
O=C(Nc1sc([N+](=O)[O-])cc1[N+](=O)[O-])c1ccccc1 | 1.3 (≈ 0.381 µg/mL) | 0.9 (≈ 0.264 µg/mL) | 27.3 (≈ 8.01 µg/mL) | 55
O=C(Nc1sc([N+](=O)[O-])cc1[N+](=O)[O-])c1cccs1 | 2.5 (≈ 0.748 µg/mL) | 1 (≈ 0.299 µg/mL) | 20 (≈ 5.99 µg/mL) | 77
O=C(Nc1ncc([N+](=O)[O-])s1)c1ccoc1 | 0.8 (≈ 0.191 µg/mL) | 12.5 (≈ 2.99 µg/mL) | 2.1 (≈ 0.502 µg/mL) | 56
O=C(Nc1nc(Cl)c([N+](=O)[O-])s1)c1cccc(C(F)(F)F)c1 | 5.7 (≈ 2 µg/mL) | 34.1 (≈ 12 µg/mL) | > 22.7 | 27
CCCCCC(=O)Nc1ncc([N+](=O)[O-])s1 | 0.5 (≈ 0.122 µg/mL) | 2.1 (≈ 0.511 µg/mL) | 8.2 (≈ 1.99 µg/mL) | 70
